# According to patent US8592421B2, “Cyclic bioisosters of purine system derivatives and a pharmaceutical composition based thereon” (priority 2003, dated 2013):
# Marks after values point to notes of the source that are not given here.
# How the values were obtained:
# [1] = system: thrombocytes; experiment: ADP-induced aggregation of thrombocytes after intravenous administration (in vivo); set-up: species or system rabbit
# Method: The experiments were carried out on male rabbits of the “Chinchilla” breed having a mass of 2.7±0.3 kg. 18-24 hours prior to the experiment they were deprived of feed while preserving free access to water.
# To obtain plasma enriched with thrombocytes, blood was taken from a cut of a marginal vein of the rabbit ear, the sample was stabilized with 3.8% of sodium citrate solution in a ratio of 9:1 and centrifuged at 200 g (1000 rev/min) for 10 minutes. The top supernatant layer enriched with thrombocytes was transferred by an automatic dropper into a silicone test tube and kept at 37° C. The plasma enriched with thrombocytes contained, on the average, […]. If this content exceeded the specified 3×10^8 blood platelets in 1 liter, this sample was diluted to the necessary concentration with plasma deprived of thrombocytes, which was obtained by centrifuging blood at 650 g during 10 minutes.
# The measurements of the optical density of the samples were made on two-channel aggregometer of the “Chronolog” Company (USA). A flask containing 490 mkl of plasma rich with thrombocytes was placed in a device, into which a magnetic agitator covered with Teflon was lowered. The index of maximum amplitude of aggregation (MA) in percent of a fall of the plasma optical density under effect of the aggregation inductor was recorded. The control index MA of plasma was compared with the MA of plasma incubated for 3 minutes with different concentrations of the compounds: from 10^−3 to 10^−7 in vitro experiments or with plasma obtained 15, 30, 60 and 120 minutes after intravenous administration of different doses of the compounds in vivo experiments.
# The process of aggregation of thrombocytes was recorded with the help of a computer; on the monitor screen the there were depicted curves reflecting changes of the optical density of the plasma enriched which was taken as a standard 100% compared to the optical density of the non-thrombocyte plasma taken for 0% content of thrombocytes.
# The antiaggregative capability of compounds 2, 15, 21, 37, according to the invention was tested in experiments in vivo. Introduced to the test animals intravenously were an aggregation inductor ADP at a concentration of 10^−5 M was and then the compounds according to the invention. The doses of the compounds were in a range from 15 to 60 mg/kg.
# For leveling the different effects of the compounds in different days due the ambient temperature, humidity and other parameters, 2 animals of each series were taken for experiments every day. Under “series” there is understood a group of 6 animals used for studying one of the doses of the compounds.
# The blood for obtaining plasma enriched with thrombocytes was taken from marginal vein of the rabbit ear: in the control group—directly before introducing the tested compounds; in investigated groups—15 minutes after introducing these compounds and then after 30, 60, 120 minutes and so on up to the moment when the effect of suppression of aggregation disappeared.
# The quantity of thrombocytes was counted before the experiment and at the end thereof in each plasma sample.
# [2] = system: plasma hemostasis; experiment: Thrombin time after intravenous administration; assay type: in vivo, rabbit
# Method: The investigations were performed on 72 rabbits of the “Chinchilla” breed with a mass of 2.5±0.3 kg, who were administered which solutions of compounds 2, 15, 21, 37 in doses of 15, 30 and 60 mg/kg intravenously. The experiments included the thrombin-test (series No. 7300) and the coagulability-test (series No. 5000) purchased from the scientific-and-production association (SPA) “Renam”, thromboplastin (series No. 240600) and calcium chloride purchased from the SPA “MedioLab”
# The static parameters of the blood and plasma coagulation (partial activated thromboplastin time, thrombin time, maximum coagulation activity (test for auto coagulation) were determined using the Behnk Electronic coagulometer (Germany). The operating principle of this instrument is based on the fact that the formed blood clot breaks the contacts of the pulse counter in the flask-pin circuit, said pin permanently oscillating in a vertical plane. The moment of formation of the clot is registered by stopping the stop watch hand.
# The measurements were effected at a constant temperature of 37° C. maintained by a temperature control unit.
# The “thrombin time” characterizes the rate of transformation of fibrinogen into fibrin. It was determined by measuring the coagulation time of plasma deprived of thrombocytes under the effect of thrombin standardized by the control plasma.
# 0.2 ml of a thrombin solution was added to 0.2 ml of the test blood plasma of experimental animals, from whom the blood was taken 15, 30, 60 and 120 minutes after the intravenous administration of compounds 2, 15, 21, 37 according to the invention in doses of 15, 30, 60 mg/kg incubated for 1 minute at a temperature of 37° C. and the time of formation of clot T2 in seconds in a coagulometer of the Behnk Electronic Company (Germany).
# [3] = 15.0 mg/kg intravenously, after 15 minutes, control 50.1 ± 1.7
# [4] = 15.0 mg/kg intravenously, after 30 minutes, control 50.1 ± 1.7
# [5] = 15.0 mg/kg intravenously, after 60 minutes, control 50.1 ± 1.7
# [6] = 15.0 mg/kg intravenously, after 120 minutes, control 50.1 ± 1.7
# [7] = 30.0 mg/kg intravenously, after 15 minutes, control 61.0 ± 1.3
# [8] = 30.0 mg/kg intravenously, after 30 minutes, control 61.0 ± 1.3
# [9] = 30.0 mg/kg intravenously, after 60 minutes, control 61.0 ± 1.3
# [10] = 30.0 mg/kg intravenously, after 120 minutes, control 61.0 ± 1.3
# [11] = 60.0 mg/kg intravenously, after 15 minutes, control 48.6 ± 1.3
# [12] = 60.0 mg/kg intravenously, after 30 minutes, control 48.6 ± 1.3
# [13] = 60.0 mg/kg intravenously, after 60 minutes, control 48.6 ± 1.3
# [14] = 60.0 mg/kg intravenously, after 120 minutes, control 48.6 ± 1.3
# [15] = 15.0 mg/kg intravenously, after 15 minutes, control 15.8
# [16] = 15.0 mg/kg intravenously, after 30 minutes, control 15.8
# [17] = 15.0 mg/kg intravenously, after 60 minutes, control 15.8
# [18] = 15.0 mg/kg intravenously, after 120 minutes, control 15.8
# [19] = 30.0 mg/kg intravenously, after 15 minutes, control 14.7
# [20] = 30.0 mg/kg intravenously, after 30 minutes, control 14.7
# [21] = 30.0 mg/kg intravenously, after 60 minutes, control 14.7
# [22] = 30.0 mg/kg intravenously, after 120 minutes, control 14.7
# [23] = 60.0 mg/kg intravenously, after 15 minutes, control 15.2
# [24] = 60.0 mg/kg intravenously, after 30 minutes, control 15.2
# [25] = 60.0 mg/kg intravenously, after 60 minutes, control 15.2
# [26] = 60.0 mg/kg intravenously, after 120 minutes, control 15.2
Compound,"MA - drop of optical density [1, 3]","MA - drop of optical density [1, 4]","MA - drop of optical density [1, 5]","MA - drop of optical density [1, 6]","MA - drop of optical density [1, 7]","MA - drop of optical density [1, 8]","MA - drop of optical density [1, 9]","MA - drop of optical density [1, 10]","MA - drop of optical density [1, 11]","MA - drop of optical density [1, 12]","MA - drop of optical density [1, 13]","MA - drop of optical density [1, 14]","thrombin time, T2 [2, 15]","thrombin time, T2 [2, 16]","thrombin time, T2 [2, 17]","thrombin time, T2 [2, 18]","thrombin time, T2 [2, 19]","thrombin time, T2 [2, 20]","thrombin time, T2 [2, 21]","thrombin time, T2 [2, 22]",also measured
"Nc1ccnc2c(=O)n([C@@H]3O[C@H](CO)[C@@H](O)[C@H]3O)[nH]c(=O)c12 [Compound 2, 4-amino-7-(β-D-ribofuranosile)pyrido[2,3-d]-6H-pyridazine-5,8-dione]",44.2 ± 2.0 %,42.2 ± 1.6 %,46.9 ± 1.7 %,49.2 ± 2.0%,45.3 ± 2.0 %,43.7 ± 1.7 %,40.1 ± 2.2 %,59.7 ± 2.2%,45.2 ± 1.2 %,43.6 ± 2.0 %,47.8 ± 1.5%,48.0 ± 1.2%,16.2* s,17.0* s,16.0* s,15.3* s,17.8* s,18.4* s,19.2* s,15.3* s,"thrombin time, T2 [2, 23]: 16.0* s; thrombin time, T2 [2, 24]: 16.9* s; thrombin time, T2 [2, 25]: 15.9* s; thrombin time, T2 [2, 26]: 15.3* s"
"Nc1cccc2c(=O)[nH][nH]c(=O)c12.[Na] [Compound 15, sodium salt of 5-amino-benzo[d]-3H-pyridazine-1,4-dione]",42.8 ± 1.8 %,41.8 ± 1.5 %,45.6 ± 1.5 %,48.3 ± 2.3 %,43.2 ± 2.2 %,41.8 ± 1.9 %,37.8 ± 1.8 %,58.1 ± 1.7%,43.1 ± 1.5 %,41.3 ± 1.5 %,44.7 ± 0.8%,47.2 ± 1.6%,17.0* s,18.5* s,16.5* s,15.5* s,19.7* s,20.5* s,21.3* s,15.0* s,"thrombin time, T2 [2, 23]: 16.8* s; thrombin time, T2 [2, 24]: 18.0* s; thrombin time, T2 [2, 25]: 16.5* s; thrombin time, T2 [2, 26]: 14.7* s"
"Nc1cnc2c(=O)n([C@@H]3O[C@H](CO)[C@@H](O)[C@H]3O)[nH]c(=O)c2n1.[Na] [Compound 21, sodium salt of 3-amino-7-(β-D-ribofuranosile)pyrazine[2,3-d]-6H-pyridazine-5,8-dione]",43.5 ± 1.7 %,43.3 ± 1.7 %,46.7 ± 1.5 %,49.1 ± 1.7%,46.7 ± 1.9 %,45.4 ± 1.8 %,45.0 ± 1.9%,60.3 ± 2.1%,45.1 ± 0.9 %,43.2 ± 2.0 %,47.3 ± 1.6%,48.3 ± 1.5%,16.4* s,17.7* s,16.1* s,15.7* s,17.9* s,18.8* s,19.0* s,15.6* s,"thrombin time, T2 [2, 23]: 16.2* s; thrombin time, T2 [2, 24]: 17.7* s; thrombin time, T2 [2, 25]: 16.3* s; thrombin time, T2 [2, 26]: 15.7* s"
"O=c1[nH][nH]c(=O)c2c(Br)ncnc12.[K] [Compound 37, potassium salt of 4-bromine-pyrimido[4,5-D]-6H-pyridazine-5,8-dione]",42.9 ± 1.6 %,41.9 ± 1.6 %,45.9 ± 1.6%,48.7 ± 2.1%,43.5 ± 2.0 %,42.0 ± 1.4 %,41.6 ± 1.4 %,58.4 ± 1.7%,43.4 ± 1.8 %,42.4 ± 0.7 %,46.2 ± 2.0%,47.3 ± 1.7%,16.9* s,18.2* s,16.3* s,15.6* s,19.5* s,20.3* s,21.0* s,15.2* s,"thrombin time, T2 [2, 23]: 16.6* s; thrombin time, T2 [2, 24]: 17.8* s; thrombin time, T2 [2, 25]: 16.2* s; thrombin time, T2 [2, 26]: 15.0* s"
